pIC50: −log10 of the molar value. Numbered stars: 1 amine (or outer) side, 2 acyl side, 3 side chain; on linkers, the order of the positions; unused ones are H or OH. Square brackets hold non-standard residues; d marks the D form. Peptide text beside a SMILES is read from it. X1 = O=C([C@H](Cc1cncn1CCCCc1cn(Cc2ccc(Oc3ccccc3)cc2F)nn1)N[*:1])[*:2]; pT = C[C@@H](OP(=O)(O)O)[C@H](N)C(=O)O
Columns and labels:
[1] = molecular target: T1, Serine/threonine-protein kinase PLK1 (Homo sapiens, UniProt P53350); assay: Inhibition of PLK1 (unknown origin) in the presence of ATP by ADP-Glo-kinase assay
[2] = molecular target: T2, Serine/threonine-protein kinase PLK2 (Homo sapiens, UniProt Q9NYY3); assay: Inhibition of PLK2 (unknown origin) in the presence of ATP by ADP-Glo-kinase assay
[3] = molecular target: T3, Serine/threonine-protein kinase PLK3 (Homo sapiens, UniProt Q9H4B4); assay: Inhibition of PLK3 (unknown origin) in the presence of ATP by ADP-Glo-kinase assay
Target sequence in this assay (Q9H4B4 whole entry): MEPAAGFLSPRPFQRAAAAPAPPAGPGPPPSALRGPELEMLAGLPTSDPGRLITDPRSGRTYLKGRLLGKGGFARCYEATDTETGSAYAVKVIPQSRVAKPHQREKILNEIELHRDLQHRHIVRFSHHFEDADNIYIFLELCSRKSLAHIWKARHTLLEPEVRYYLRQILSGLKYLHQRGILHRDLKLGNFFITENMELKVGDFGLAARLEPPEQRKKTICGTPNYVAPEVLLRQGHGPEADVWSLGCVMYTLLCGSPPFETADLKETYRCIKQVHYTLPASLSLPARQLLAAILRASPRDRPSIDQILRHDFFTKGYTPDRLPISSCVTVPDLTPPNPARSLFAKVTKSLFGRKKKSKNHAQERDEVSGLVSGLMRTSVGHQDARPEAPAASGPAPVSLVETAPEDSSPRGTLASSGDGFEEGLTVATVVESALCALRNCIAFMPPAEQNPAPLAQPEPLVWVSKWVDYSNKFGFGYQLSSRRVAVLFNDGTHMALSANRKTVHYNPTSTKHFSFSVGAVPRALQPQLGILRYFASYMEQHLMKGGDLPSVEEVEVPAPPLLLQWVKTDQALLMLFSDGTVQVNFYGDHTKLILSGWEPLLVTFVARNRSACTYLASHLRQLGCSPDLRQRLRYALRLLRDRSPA

MV4-11 = assay: Antiproliferative activity against human MV4-11 cells assessed as inhibition of cell growth incubated for 24 hrs by CCK-8 assay; format: functional, cell-based; conditions: MV4-11, 24 h
[4] = molecular target: T1, Serine/threonine-protein kinase PLK1; assay: Inhibition of biotin labelled PoloBoxtide binding to GST/His-fused full length PLK1 (unknown origin) expressed in baculovirus infected Sf9 cells
[5] = molecular target: T2, Serine/threonine-protein kinase PLK2; assay: Inhibition of 5-carboxyfluorescein-GPMQTSpTPKNG-OH peptide binding to PLK2 (355 to 685 residues) PBD (unknown origin) preincubated for 1 hrs with compound followed by peptide addition and measured after 1 hrs by fluorescence polarization assay
[6] = molecular target: T3, Serine/threonine-protein kinase PLK3; assay: Inhibition of 5-carboxyfluorescein-GPLATSpTPKNG-OH peptide binding to PLK3 (335 to 646 residues) PBD (unknown origin) at 100 uM preincubated for 1 hrs with compound followed by peptide addition and measured after 1 hrs by fluorescence polarization assay; conditions: time 2.0 hrs
Target sequence in this assay (Q9H4B4 whole entry, looked up): as the sequence (Q9H4B4 whole entry) above

[7] = molecular target: T1, Serine/threonine-protein kinase PLK1; assay: Inhibition of 5-carboxyfluoresceinGPMQSpTPLNG-OH peptide binding to PLK1 (326 to 603 residues) PBD (unknown origin) preincubated for 1 hrs with compound followed by peptide addition and measured after 1 hrs by fluorescence polarization assay
HeLa [8] = assay: Antiproliferative activity against human HeLa cells assessed as inhibition of cell proliferation incubated for 24 hrs by BCA assay; format: functional, cell-based
[9] = Half-life in rat liver microsomes; format: ADME, Microsome
[10] = Solubility of the compound; format: physicochemical
[11] = molecular target: T2, Serine/threonine-protein kinase PLK2; assay: Inhibition of Myc-tagged PLK2 PBD (unknown origin) expressed in HEK293T cells using 5CF-GPMQTSpTPKNG-NH2 as substrate preincubated for 30 mins followed by substrate addition and measured after 30 mins by fluorescence polarization assay
[12] = molecular target: T1, Serine/threonine-protein kinase PLK1; assay: Inhibition of PLK1 PBD (unknown origin) dependent binding
[13] = molecular target: T1, Serine/threonine-protein kinase PLK1; assay: Inhibition of biotinylated PLHSpT peptide binding to n-terminal GST-tagged full length human PLK1 PBD preincubated with compound for 30 mins followed by peptide addition and measured after 1 hrs by time-resolved fluorescence energy transfer assay
HeLa [14] = assay: Antiproliferative activity against human HeLa cells assessed as inhibition of cell proliferation incubated for 72 hrs by MTT assay; format: functional, cell-based
[15] = molecular target: T1, Serine/threonine-protein kinase PLK1; assay: Inhibition of 5-carboxyfluoresceinGPMQSpTPLNG-OH peptide binding to PLK1 (326 to 603 residues) PBD (unknown origin) preincubated for 1 hrs with compound followed by peptide addition and measured after 75 mins by fluorescence polarization assay
[16] = molecular target: T2, Serine/threonine-protein kinase PLK2; assay: Inhibition of 5-carboxyfluorescein-GPMQTSpTPKNG-OH peptide binding to PLK2 (355 to 685 residues) PBD (unknown origin) preincubated for 1 hrs with compound followed by peptide addition and measured after 75 min by fluorescence polarization assay
[17] = molecular target: T3, Serine/threonine-protein kinase PLK3; assay: Inhibition of 5-carboxyfluorescein-GPLATSpTPKNG-OH peptide binding to PLK3 (335 to 646 residues) PBD (unknown origin) at 100 uM preincubated for 1 hrs with compound followed by peptide addition and measured after 75 mins by fluorescence polarization assay; conditions: time 135.0 min
Target sequence in this assay (Q9H4B4 whole entry, looked up): as the sequence (Q9H4B4 whole entry) above

T1 sequence (P53350 whole entry): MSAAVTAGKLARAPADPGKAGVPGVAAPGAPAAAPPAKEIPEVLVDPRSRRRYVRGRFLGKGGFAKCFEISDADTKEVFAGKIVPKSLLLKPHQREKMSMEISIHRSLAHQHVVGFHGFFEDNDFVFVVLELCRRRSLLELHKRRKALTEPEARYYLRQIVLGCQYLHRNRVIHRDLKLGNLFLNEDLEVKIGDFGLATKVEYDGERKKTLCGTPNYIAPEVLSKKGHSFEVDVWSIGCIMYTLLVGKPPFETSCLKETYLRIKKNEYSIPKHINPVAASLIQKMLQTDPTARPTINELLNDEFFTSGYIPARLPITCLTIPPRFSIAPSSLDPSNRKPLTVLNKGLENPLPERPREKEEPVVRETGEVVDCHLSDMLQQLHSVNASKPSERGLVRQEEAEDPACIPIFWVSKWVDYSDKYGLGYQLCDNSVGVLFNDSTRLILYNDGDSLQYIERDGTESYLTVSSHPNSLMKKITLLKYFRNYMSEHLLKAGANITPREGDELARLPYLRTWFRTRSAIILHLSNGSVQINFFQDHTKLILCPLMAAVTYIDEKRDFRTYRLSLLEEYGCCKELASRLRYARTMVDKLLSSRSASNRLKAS
T2 sequence (Q9NYY3 whole entry): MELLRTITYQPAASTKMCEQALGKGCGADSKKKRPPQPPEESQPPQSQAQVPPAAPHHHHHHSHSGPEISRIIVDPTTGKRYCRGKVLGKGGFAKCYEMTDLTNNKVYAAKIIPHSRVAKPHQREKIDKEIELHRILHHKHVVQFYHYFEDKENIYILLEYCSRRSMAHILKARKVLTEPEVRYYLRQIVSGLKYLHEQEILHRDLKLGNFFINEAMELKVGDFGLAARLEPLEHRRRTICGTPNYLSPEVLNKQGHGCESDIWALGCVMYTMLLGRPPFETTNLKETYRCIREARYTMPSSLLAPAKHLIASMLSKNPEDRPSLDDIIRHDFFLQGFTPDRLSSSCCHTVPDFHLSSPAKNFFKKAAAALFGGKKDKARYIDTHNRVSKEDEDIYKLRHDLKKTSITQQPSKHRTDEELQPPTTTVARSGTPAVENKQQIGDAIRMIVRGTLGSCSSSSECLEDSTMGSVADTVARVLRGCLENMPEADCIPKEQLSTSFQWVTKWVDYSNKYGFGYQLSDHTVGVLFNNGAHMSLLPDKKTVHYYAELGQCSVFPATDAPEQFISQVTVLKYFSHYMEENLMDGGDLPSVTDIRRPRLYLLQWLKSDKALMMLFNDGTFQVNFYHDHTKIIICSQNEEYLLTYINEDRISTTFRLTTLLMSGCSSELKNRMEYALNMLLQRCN

Structure (SMILES): O=c1cc(-c2ccccc2)oc2cc(O)c(O)c(O)c12 [BAICALEIN]
- pIC50 [1]: 5.05
- pIC50 [2]: 3.50
- pIC50 [3]: 4.40

Structure (SMILES): CC[C@@H]1C(=O)N(C)c2cnc(Nc3ccc(C(=O)NCCOCCOCCNc4cccc5c4C(=O)N(C4CCC(=O)NC4=O)C5=O)cc3OC)nc2N1C1CCCC1 (stereo partly specified)
- pIC50 (MV4-11): 8.35

Structure (SMILES): Cc1ccc(NC(=S)NCCNc2nccc(C(F)(F)F)n2)c(C)c1
- pIC50 [4]: 6.00

Structure (SMILES): CC1=C/C(=N/OC(=O)c2ccc(CNC(=O)CCc3cn(CCCCCCOCCOCCNC(=O)CC45CC6CC(CC(C6)C4)C5)nn3)cc2C)C(C)=CC1=O
- pIC50 [5]: 4.28
- inhibition [6]: 47%
- pIC50 [7]: 4.98
- pIC50 (HeLa [8]): 4.85

Structure (SMILES): O=c1c2cc(F)ccc2n2c(=S)[nH]nc2n1CC1CC1
- half-life [9]: > 30 min
- solubility [10]: > 60 µg/mL

Structure (SMILES): O=c1c2cc(F)ccc2n2c(=S)[nH]nc2n1CCc1ccccn1
- half-life [9]: > 30 min
- solubility [10]: > 60 µg/mL

Structure (SMILES): N#Cc1ccc(CC(=O)NCCCn2c(=O)c3cc(F)ccc3n3c(=S)[nH]nc23)cc1
- half-life [9]: > 30 min
- solubility [10]: > 60 µg/mL

Structure (SMILES): CC(=O)N1CCC[C@H]1C(=O)N[C@@H](CC(C)C)C(=O)N[C@@H](Cc1cncn1CCCCc1cn(Cc2ccc(Oc3ccccc3)cc2F)nn1)C(=O)N[C@@H](CO)C(=O)N[C@H](C(N)=O)[C@@H](C)OP(=O)(O)O (Ac-PL[X1]S[pT]-NH2)
- pIC50 [11]: 5.23

Structure (SMILES): CCCCCCCCCC1=CO[C@]2(C[C@H](C(=O)O)[C@@](CC(=O)O)(C(=O)O)O2)C1=O
- pIC50 [12]: 3.89

Structure (SMILES): COc1c2c(cc3c1C(CC(=O)c1ccccn1)[N+](C)(C)CC3)OCO2 (stereo unspecified)
- pIC50 [13]: 5.68
- pIC50 (HeLa [14]): 4.65

Structure (SMILES): CC1=C/C(=N/OC(=O)c2ccc(CNC(=O)CCc3cn(CCCCCCOCCOCCNC(=O)[C@H](C)CCC45CC6CC(CC(C6)C4)C5)nn3)cc2C)C(C)=CC1=O
- pIC50 [15]: 4.32
- pIC50 [16]: 4.26
- inhibition [17]: 34%
- pIC50 (HeLa [8]): 5.04

Structure (SMILES): O=c1c2cc(F)ccc2n2c(=S)[nH]nc2n1CCc1ccncc1
- half-life [9]: > 30 min
- solubility [10]: > 60 µg/mL

Structure (SMILES): CCCCCCCCCC1=CO[C@]2(C[C@H](C(=O)O)[C@@](CC(=O)O)(C(=O)OCCCC)O2)C1=O
- pIC50 [12]: 3.99
